In publication PMC10141580, “Cyclic Dichalcogenides Extend the Reach of Bioreductive Prodrugs to Harness Thiol/Disulfide Oxidoreductases: Applications to seco-Duocarmycins Targeting the Thioredoxin System” (ACS Central Science, 2023):
Like-named read-outs stand apart in the source and are kept apart here.

Tested on: NCI-60 standardized human tumor cell line panel
Assay: cells
Type: cell-based
[1] = cell line A549/ATCC (LC:A549/ATCC), TMI sheet
[2] = cell line BT-549 (BR:BT-549), TMI sheet
[3] = cell line CCRF-CEM (LE:CCRF-CEM), TMI sheet
[4] = cell line COLO 205 (CO:COLO 205), TMI sheet
[5] = cell line EKVX (LC:EKVX), TMI sheet
[6] = cell line HCC-2998 (CO:HCC-2998), TMI sheet
[7] = cell line HCT-15 (CO:HCT-15), TMI sheet
[8] = cell line HCT-116 (CO:HCT-116), TMI sheet
[9] = cell line HL-60(TB) (LE:HL-60(TB)), TMI sheet
[10] = cell line HOP-62 (LC:HOP-62), TMI sheet
[11] = cell line HOP-92 (LC:HOP-92), TMI sheet
[12] = cell line HT29 (CO:HT29), TMI sheet
[13] = cell line K-562 (LE:K-562), TMI sheet
[14] = cell line KM12 (CO:KM12), TMI sheet
[15] = cell line LOX IMVI (ME:LOX IMVI), TMI sheet
[16] = cell line M14 (ME:M14), TMI sheet
[17] = cell line MALME-3M (ME:MALME-3M), TMI sheet
[18] = cell line MCF7 (BR:MCF7), TMI sheet
[19] = cell line MDA-MB-435 (ME:MDA-MB-435), TMI sheet
[20] = cell line MOLT-4 (LE:MOLT-4), TMI sheet
[21] = cell line NCI-H23 (LC:NCI-H23), TMI sheet
[22] = cell line NCI-H226 (LC:NCI-H226), TMI sheet
[23] = cell line RPMI-8226 (LE:RPMI-8226), TMI sheet
[24] = cell line SF-539 (CNS:SF-539), TMI sheet
[25] = cell line SK-MEL-5 (ME:SK-MEL-5), TMI sheet
[26] = cell line SK-MEL-28 (ME:SK-MEL-28), TMI sheet
[27] = cell line SNB-19 (CNS:SNB-19), TMI sheet
[28] = cell line SR (LE:SR), TMI sheet
[29] = cell line SW-620 (CO:SW-620), TMI sheet
[30] = cell line T-47D (BR:T-47D), TMI sheet
[31] = cell line U251 (CNS:U251), TMI sheet
[32] = cell line UACC-62 (ME:UACC-62), TMI sheet
[33] = cell line UACC-257 (ME:UACC-257), TMI sheet

COc1cc2cc(C(=O)N3CC(CCl)c4c3cc(OC(=O)N3CCN(C)C5CSSCC53)c3ccccc43)[nH]c2c(OC)c1OC (mixture of isomers) [Me-SS66C-CBI-TMI]
GI50 (U251, read-out: GI50): 140 nM | GI50 (UACC-62, read-out: GI50): 150 nM | GI50 (UACC-257, read-out: GI50): 500 nM | NCI-60 screening: Log(GI50) [1]: -6.74 | NCI-60 screening: Log(RedIndex) [1]: 1.04 | NCI-60 screening: Log(GI50) [2]: -6.78 | NCI-60 screening: Log(RedIndex) [2]: 0.98 | GI50 (cell line BT-549 (BR:BT-549), TMI sheet, read-out: NCI-60 screening: Raw GI50): 170 nM | NCI-60 screening: Log(GI50) [3]: -6.98 | NCI-60 screening: Log(RedIndex) [3]: 0.98 | NCI-60 screening: Log(GI50) [4]: -6.48 | NCI-60 screening: Log(RedIndex) [4]: 0.62 | NCI-60 screening: Log(GI50) [5]: -6.64 | NCI-60 screening: Log(RedIndex) [5]: 0.93 | GI50 (cell line EKVX (LC:EKVX), TMI sheet, read-out: NCI-60 screening: Raw GI50): 230 nM | NCI-60 screening: Log(GI50) [6]: -6.84 | NCI-60 screening: Log(RedIndex) [6]: 1.02 | GI50 (cell line HCC-2998 (CO:HCC-2998), TMI sheet, read-out: NCI-60 screening: Raw GI50): 140 nM | NCI-60 screening: Log(GI50) [7]: -6.61 | NCI-60 screening: Log(RedIndex) [7]: 0.85 | GI50 (cell line HCT-15 (CO:HCT-15), TMI sheet, read-out: NCI-60 screening: Raw GI50): 250 nM | NCI-60 screening: Log(GI50) [8]: -6.73 | NCI-60 screening: Log(RedIndex) [8]: 0.9 | NCI-60 screening: Log(GI50) [9]: -7.28 | NCI-60 screening: Log(RedIndex) [9]: 1.16 | NCI-60 screening: Log(GI50) [10]: -6.69 | NCI-60 screening: Log(RedIndex) [10]: 0.46 | GI50 (cell line HOP-62 (LC:HOP-62), TMI sheet, read-out: NCI-60 screening: Raw GI50): 200 nM | NCI-60 screening: Log(GI50) [11]: -6.62 | NCI-60 screening: Log(RedIndex) [11]: 1.02 | GI50 (cell line HOP-92 (LC:HOP-92), TMI sheet, read-out: NCI-60 screening: Raw GI50): 240 nM | NCI-60 screening: Log(GI50) [12]: -6.65 | NCI-60 screening: Log(RedIndex) [12]: 0.83 | GI50 (cell line HT29 (CO:HT29), TMI sheet, read-out: NCI-60 screening: Raw GI50): 230 nM | NCI-60 screening: Log(GI50) [13]: -6.4 | NCI-60 screening: Log(RedIndex) [13]: 0.23 | NCI-60 screening: Log(GI50) [14]: -5.96 | NCI-60 screening: Log(RedIndex) [14]: 0.27 | NCI-60 screening: Log(GI50) [15]: -6.78 | NCI-60 screening: Log(RedIndex) [15]: 0.82 | GI50 (cell line LOX IMVI (ME:LOX IMVI), TMI sheet, read-out: NCI-60 screening: Raw GI50): 170 nM | NCI-60 screening: Log(GI50) [16]: -6.6 | NCI-60 screening: Log(RedIndex) [16]: 0.78 | GI50 (cell line M14 (ME:M14), TMI sheet, read-out: NCI-60 screening: Raw GI50): 250 nM | NCI-60 screening: Log(GI50) [17]: -6.67 | NCI-60 screening: Log(RedIndex) [17]: 0.87 | NCI-60 screening: Log(GI50) [18]: -7.55 | NCI-60 screening: Log(RedIndex) [18]: 1.05 | GI50 (cell line MCF7 (BR:MCF7), TMI sheet, read-out: NCI-60 screening: Raw GI50): 28 nM | NCI-60 screening: Log(GI50) [19]: -6.08 | NCI-60 screening: Log(RedIndex) [19]: 0.33 | NCI-60 screening: Log(GI50) [20]: -7.16 | NCI-60 screening: Log(RedIndex) [20]: 0.93 | NCI-60 screening: Log(GI50) [21]: -7.34 | NCI-60 screening: Log(RedIndex) [21]: 1.02 | NCI-60 screening: Log(GI50) [22]: -5.99 | NCI-60 screening: Log(RedIndex) [22]: 0.15 | NCI-60 screening: Log(GI50) [23]: -6.79 | NCI-60 screening: Log(RedIndex) [23]: 0.96 | GI50 (cell line RPMI-8226 (LE:RPMI-8226), TMI sheet, read-out: NCI-60 screening: Raw GI50): 160 nM | NCI-60 screening: Log(GI50) (cell line SF-268 (CNS:SF-268), TMI sheet): -6.76 | GI50 (cell line SF-268 (CNS:SF-268), TMI sheet, read-out: NCI-60 screening: Raw GI50): 170 nM | NCI-60 screening: Log(GI50) (cell line SF-295 (CNS:SF-295), TMI sheet): -6.88 | GI50 (cell line SF-295 (CNS:SF-295), TMI sheet, read-out: NCI-60 screening: Raw GI50): 130 nM | NCI-60 screening: Log(GI50) [24]: -6.76 | NCI-60 screening: Log(RedIndex) [24]: 0.88 | GI50 (cell line SF-539 (CNS:SF-539), TMI sheet, read-out: NCI-60 screening: Raw GI50): 170 nM | NCI-60 screening: Log(GI50) [25]: -6.78 | NCI-60 screening: Log(RedIndex) [25]: 0.99 | GI50 (cell line SK-MEL-5 (ME:SK-MEL-5), TMI sheet, read-out: NCI-60 screening: Raw GI50): 170 nM | NCI-60 screening: Log(GI50) [26]: -6.58 | NCI-60 screening: Log(RedIndex) [26]: 1.14 | GI50 (cell line SK-MEL-28 (ME:SK-MEL-28), TMI sheet, read-out: NCI-60 screening: Raw GI50): 260 nM | NCI-60 screening: Log(GI50) [27]: -6.65 | NCI-60 screening: Log(RedIndex) [27]: 1 | NCI-60 screening: Log(GI50) [28]: -7.43 | NCI-60 screening: Log(RedIndex) [28]: 0.87 | NCI-60 screening: Log(GI50) [29]: -6.58 | NCI-60 screening: Log(RedIndex) [29]: 0.85 | GI50 (cell line SW-620 (CO:SW-620), TMI sheet, read-out: NCI-60 screening: Raw GI50): 260 nM | NCI-60 screening: Log(GI50) [30]: -6.54 | NCI-60 screening: Log(RedIndex) [30]: 0.82 | NCI-60 screening: Log(GI50) [31]: -6.86 | NCI-60 screening: Log(RedIndex) [31]: 1.04 | GI50 (cell line U251 (CNS:U251), TMI sheet, read-out: NCI-60 screening: Raw GI50): 140 nM | NCI-60 screening: Log(GI50) [32]: -6.83 | NCI-60 screening: Log(RedIndex) [32]: 1.02 | GI50 (cell line UACC-62 (ME:UACC-62), TMI sheet, read-out: NCI-60 screening: Raw GI50): 150 nM | NCI-60 screening: Log(GI50) [33]: -6.3 | NCI-60 screening: Log(RedIndex) [33]: 0.6 | mean reductive index (mean over NCI cell lines, vs P-CC60): ca. 7 | GI50 (read-out: NCI-60 screening: Raw GI50): 240 nM
